In patent US9125913B2, “Bcl-2-selective apoptosis-inducing agents for the treatment of cancer and immune diseases” (AbbVie Inc., priority 2008, dated 2015):

The compounds below were run on GST-Bcl-2 (assay: TR-FRET binding assay, Bcl-2). Conditions: TR-FRET Ki values.
How it was run: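 Ki values come from Wang's competitive-binding equation applied to TR-FRET signal (excitation 340/35 nm; emission 520/525 nm F-Bak peptide, 495/510 nm Tb antibody). Protein, probe and antibody incubated with compound 3 h at room temperature; dilution series began at 50 μM as 2× stock in 10% DMSO.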

**Q.** With `CN(C)CCCNc1ccc(S(=O)(=O)NC(=O)c2ccc(N3CCN(CC4=C(c5ccc(Cl)cc5)CCC(C)(C)C4)CC3)cc2Oc2ccc3[nH]ccc3c2)cc1[N+](=O)[O-]` [Example 51, 4-(4-{[2-(4-chlorophenyl)-5,5-dimethylcyclohex-1-en-1-yl]methyl}piperazin-1-yl)-N-[(4-{[3-(dimethylamino)propyl]amino}-3-nitrophenyl)sulfonyl]-2-(1H-indol-5-yloxy)benzamide] as the compound, how does the “Binding selectivity ratio (Bcl-XL Ki/Bcl-2 Ki)” value (“Binding selectivity ratio” below) read?
**A.** 62.1

**Q.** `O=C(NS(=O)(=O)c1ccc(NCCCN2CCOCC2)c([N+](=O)[O-])c1)c1ccc(N2CCN(Cc3ccccc3-c3ccc(Cl)cc3)CC2)cc1Oc1cccc2[nH]ccc12` [Example 58, 4-{4-[(4′-chloro-1,1′-biphenyl-2-yl)methyl]piperazin-1-yl}-2-(1H-indol-4-yloxy)-N-({4-[(3-morpholin-4-ylpropyl)amino]-3-nitrophenyl}sulfonyl)benzamide] was tested. Which “Binding selectivity ratio” value did it give?
**A.** 265.5

**Q.** How did the “Binding selectivity ratio” value turn out when `O=C(NS(=O)(=O)c1ccc(NCCCN2CCOCC2)c([N+](=O)[O-])c1)c1ccc(N2CCN(Cc3ccccc3-c3ccc(Cl)cc3)CC2)cc1Oc1ccc2[nH]ccc2c1` [Example 59, 4-{4-[(4′-chloro-1,1′-biphenyl-2-yl)methyl]piperazin-1-yl}-2-(1H-indol-5-yloxy)-N-({4-[(3-morpholin-4-ylpropyl)amino]-3-nitrophenyl}sulfonyl)benzamide] was run?
**A.** 1867.6

**Q.** For `COc1ccc(S(=O)(=O)NC(=O)c2ccc(N3CCN(Cc4ccccc4-c4ccc(Cl)cc4)CC3)cc2Oc2ccccc2)cc1` [Example 60, 4-{4-[(4′-chloro-1,1′-biphenyl-2-yl)methyl]piperazin-1-yl}-N-[(4-methoxyphenyl)sulfonyl]-2-phenoxybenzamide], which “Binding selectivity ratio” value is on record?
**A.** >34.9

**Q.** `Cc1ccc(S(=O)(=O)NC(=O)c2ccc(N3CCN(Cc4ccccc4-c4ccc(Cl)cc4)CC3)cc2Oc2ccccc2)cc1` [Example 61, 4-{4-[(4′-chloro-1,1′-biphenyl-2-yl)methyl]piperazin-1-yl}-N-[(4-methylphenyl)sulfonyl]-2-phenoxybenzamide] was tested. Which “Binding selectivity ratio” value did it give?
**A.** >12.6

**Q.** `O=C(NS(=O)(=O)c1ccc(NCC2CCOCC2)c(S(=O)(=O)C(F)(F)F)c1)c1ccc(N2CCN(Cc3ccccc3-c3ccc(Cl)cc3)CC2)cc1Oc1ccc2[nH]ccc2c1` [Example 62, 4-{4-[(4′-chloro-1,1′-biphenyl-2-yl)methyl]piperazin-1-yl}-2-(1H-indol-5-yloxy)-N-({4-[(tetrahydro-2H-pyran-4-ylmethyl)amino]-3-[(trifluoromethyl)sulfonyl]phenyl}sulfonyl)benzamide] was tested. Which “Binding selectivity ratio” value did it give?
**A.** 162.4

**Q.** `CN(C)CCCNc1ccc(S(=O)(=O)NC(=O)c2ccc(N3CCN(Cc4ccccc4-c4ccc(Cl)cc4)CC3)cc2Oc2ccc3[nH]ccc3c2)cc1S(=O)(=O)C(F)(F)F` [Example 64, 4-{4-[(4′-chloro-1,1′-biphenyl-2-yl)methyl]piperazin-1-yl}-N-({4-{[3-(dimethylamino)propyl]amino}-3-[(trifluoromethyl)sulfonyl]phenyl}sulfonyl)-2-(1H-indol-5-yloxy)benzamide] was tested. Which “Binding selectivity ratio” value did it give?
**A.** 77.1

**Q.** How did the “Binding selectivity ratio” value turn out when `O=C(NS(=O)(=O)c1ccc(NCCCN2CCOCC2)c(S(=O)(=O)C(F)(F)F)c1)c1ccc(N2CCN(Cc3ccccc3-c3ccc(Cl)cc3)CC2)cc1Oc1cccc2[nH]ccc12` [Example 65, 4-{4-[(4′-chloro-1,1′-biphenyl-2-yl)methyl]piperazin-1-yl}-2-(1H-indol-4-yloxy)-N-({4-[(3-morpholin-4-ylpropyl)amino]-3-[(trifluoromethyl)sulfonyl]phenyl}sulfonyl)benzamide] was run?
**A.** 4.8

**Q.** With `CN(C)CCCNc1ccc(S(=O)(=O)NC(=O)c2ccc(N3CCN(CC4=C(c5ccc(Cl)cc5)CC(C)(C)CC4)CC3)cc2Oc2ccc3[nH]ccc3c2)cc1S(=O)(=O)C(F)(F)Cl` [Example 67, N-[(3-{[chloro(difluoro)methyl]sulfonyl}-4-{[3-(dimethylamino)propyl]amino}phenyl)sulfonyl]-4-(4-{[2-(4-chlorophenyl)-4,4-dimethylcyclohex-1-en-1-yl]methyl}piperazin-1-yl)-2-(1H-indol-5-yloxy)benzamide] as the compound, how does the “Binding selectivity ratio” value read?
**A.** >2.3

**Q.** With `O=C(NS(=O)(=O)c1ccc(NCCCN2CCOCC2)cc1)c1ccc(N2CCN(Cc3ccccc3-c3ccc(Cl)cc3)CC2)cc1Oc1ccccc1` [Example 78, 4-{4-[(4′-chloro-1,1′-biphenyl-2-yl)methyl]piperazin-1-yl}-N-({4-[(3-morpholin-4-ylpropyl)amino]phenyl}sulfonyl)-2-phenoxybenzamide] as the compound, how does the “Binding selectivity ratio” value read?
**A.** >5.9

**Q.** With `O=C(NS(=O)(=O)c1ccc(NCC2CCOCC2)c([N+](=O)[O-])c1)c1ccc(N2CCN(Cc3ccccc3-c3ccc(Cl)cc3)CC2)cc1Oc1cccnc1` [Example 79, 4-{4-[(4′-chloro-1,1′-biphenyl-2-yl)methyl]piperazin-1-yl}-N-({3-nitro-4-[(tetrahydro-2H-pyran-4-ylmethyl)amino]phenyl}sulfonyl)-2-(pyridin-3-yloxy)benzamide] as the compound, how does the “Binding selectivity ratio” value read?
**A.** 47.4

**Q.** For `CN1CCN(CCNc2ccc(S(=O)(=O)NC(=O)c3ccc(N4CCN(Cc5ccccc5-c5ccc(Cl)cc5)CC4)cc3Oc3ccccc3)cc2[N+](=O)[O-])CC1` [Example 85, 4-{4-[(4′-chloro-1,1′-biphenyl-2-yl)methyl]piperazin-1-yl}-N-[(4-{[2-(4-methylpiperazin-1-yl)ethyl]amino}-3-nitrophenyl)sulfonyl]-2-phenoxybenzamide], which “Binding selectivity ratio” value is on record?
**A.** 48.8

**Q.** `CN(C)CCCN(C)c1ccc(S(=O)(=O)NC(=O)c2ccc(N3CCN(Cc4ccccc4-c4ccc(Cl)cc4)CC3)cc2Oc2ccccc2)cc1[N+](=O)[O-]` [Example 87, 4-{4-[(4′-chloro-1,1′-biphenyl-2-yl)methyl]piperazin-1-yl}-N-({4-[[3-(dimethylamino)propyl](methyl)amino]-3-nitrophenyl}sulfonyl)-2-phenoxybenzamide] was tested. Which “Binding selectivity ratio” value did it give?
**A.** 533.8

**Q.** Which “Binding selectivity ratio” value does the source give for `CN(C)CCCNc1ccc(S(=O)(=O)NC(=O)c2ccc(N3CCN(Cc4ccccc4-c4ccc(Cl)cc4)CC3)cc2Oc2ccccc2)cc1C#N` [Example 90, 4-{4-[(4′-chloro-1,1′-biphenyl-2-yl)methyl]piperazin-1-yl}-N-[(3-cyano-4-{[3-(dimethylamino)propyl]amino}phenyl)sulfonyl]-2-phenoxybenzamide] here?
**A.** 133

**Q.** For `O=C(NS(=O)(=O)c1ccc(NCCCN2CCCC2)c([N+](=O)[O-])c1)c1ccc(N2CCN(Cc3ccccc3-c3ccc(Cl)cc3)CC2)cc1Oc1ccccc1` [Example 91, 4-{4-[(4′-chloro-1,1′-biphenyl-2-yl)methyl]piperazin-1-yl}-N-({3-nitro-4-[(3-pyrrolidin-1-ylpropyl)amino]phenyl}sulfonyl)-2-phenoxybenzamide], which “Binding selectivity ratio” value is on record?
**A.** 52.8

**Q.** Which “Binding selectivity ratio” value does the source give for `CN(C)CCCNc1ccc(S(=O)(=O)NC(=O)c2ccc(N3CCN(Cc4ccccc4-c4ccc(Cl)cc4)CC3)cc2Oc2ccccc2)cc1C(F)(F)F` [Example 92, 4-{4-[(4′-chloro-1,1′-biphenyl-2-yl)methyl]piperazin-1-yl}-N-{[4-{[3-(dimethylamino)propyl]amino}-3-(trifluoromethyl)phenyl]sulfonyl}-2-phenoxybenzamide] here?
**A.** 79.7

**Q.** How did the “Binding selectivity ratio” value turn out when `CC(C)N(C)CCCNc1ccc(S(=O)(=O)NC(=O)c2ccc(N3CCN(Cc4ccccc4-c4ccc(Cl)cc4)CC3)cc2Oc2ccccc2)cc1[N+](=O)[O-]` [Example 93, 4-{4-[(4′-chloro-1,1′-biphenyl-2-yl)methyl]piperazin-1-yl}-N-{[4-({3-[isopropyl(methyl)amino]propyl}amino)-3-nitrophenyl]sulfonyl}-2-phenoxybenzamide] was run?
**A.** 60

**Q.** Which “Binding selectivity ratio” value does the source give for `CN1CCN(CCNc2ccc(S(=O)(=O)NC(=O)c3ccc(N4CCN(CC5=C(c6ccc(Cl)cc6)CC(C)(C)CC5)CC4)cc3Oc3ccc4[nH]ccc4c3)cc2[N+](=O)[O-])CC1` [Example 95, 4-(4-{[2-(4-chlorophenyl)-4,4-dimethylcyclohex-1-en-1-yl]methyl}piperazin-1-yl)-2-(1H-indol-5-yloxy)-N-[(4-{[2-(4-methylpiperazin-1-yl)ethyl]amino}-3-nitrophenyl)sulfonyl]benzamide] here?
**A.** 261.7

**Q.** Which “Binding selectivity ratio” value does the source give for `CN1CCN(CCNc2ccc(S(=O)(=O)NC(=O)c3ccc(N4CCN(CC5=C(c6ccc(Cl)cc6)CC(C)(C)CC5)CC4)cc3Oc3cccc4[nH]ccc34)cc2[N+](=O)[O-])CC1` [Example 101, 4-(4-{[2-(4-chlorophenyl)-4,4-dimethylcyclohex-1-en-1-yl]methyl}piperazin-1-yl)-2-(1H-indol-4-yloxy)-N-[(4-{[2-(4-methylpiperazin-1-yl)ethyl]amino}-3-nitrophenyl)sulfonyl]benzamide] here?
**A.** 121.2

**Q.** How did the “Binding selectivity ratio” value turn out when `CN1CCN(c2ccc(S(=O)(=O)NC(=O)c3ccc(N4CCN(CC5=C(c6ccc(Cl)cc6)CC(C)(C)CC5)CC4)cc3Oc3ccc4[nH]ccc4c3)cc2[N+](=O)[O-])CC1` [Example 107, 4-(4-{[2-(4-chlorophenyl)-4,4-dimethylcyclohex-1-en-1-yl]methyl}piperazin-1-yl)-2-(1H-indol-5-yloxy)-N-{[4-(4-methylpiperazin-1-yl)-3-nitrophenyl]sulfonyl}benzamide] was run?
**A.** 62.5

**Q.** With `CC1(C)CCC(CN2CCN(c3ccc(C(=O)NS(=O)(=O)c4ccc(NC5CCN(CC(F)(F)F)CC5)c([N+](=O)[O-])c4)c(Oc4cccc5[nH]ccc45)c3)CC2)=C(c2ccc(Cl)cc2)C1` [Example 108, 4-(4-{[2-(4-chlorophenyl)-4,4-dimethylcyclohex-1-en-1-yl]methyl}piperazin-1-yl)-2-(1H-indol-4-yloxy)-N-[(3-nitro-4-{[1-(2,2,2-trifluoroethyl)piperidin-4-yl]amino}phenyl)sulfonyl]benzamide] as the compound, how does the “Binding selectivity ratio” value read?
**A.** 25.5

**Q.** How did the “Binding selectivity ratio” value turn out when `O=C(NS(=O)(=O)c1ccc(NCC2CCOCC2)c([N+](=O)[O-])c1)c1ccc(N2CCN(Cc3cc(OCCCN4CCCCC4)ccc3-c3ccc(Cl)cc3)CC2)cc1Oc1ccccc1` [Example 114, 4-(4-{[4′-chloro-4-(3-piperidin-1-ylpropoxy)-1,1′-biphenyl-2-yl]methyl}piperazin-1-yl)-N-({3-nitro-4-[(tetrahydro-2H-pyran-4-ylmethyl)amino]phenyl}sulfonyl)-2-phenoxybenzamide] was run?
**A.** 149.2
